Read-outs that look alike come from different tables or passages of the source.

The record followed here is paper PMC8496750, “Identification of the organic anion transporting polypeptides responsible for the hepatic uptake of the major metabolite of epyrifenacil, S‐3100‐CA, in mice” (Pharmacology Research & Perspectives, 2021).

One data set deals with T1, human OATP1B3 (Homo sapiens, UniProt Q9NPD5).
T1 construct: expressed in transfected cells; host or cells: 293FT cells
T1 sequence (Q9NPD5 1-702): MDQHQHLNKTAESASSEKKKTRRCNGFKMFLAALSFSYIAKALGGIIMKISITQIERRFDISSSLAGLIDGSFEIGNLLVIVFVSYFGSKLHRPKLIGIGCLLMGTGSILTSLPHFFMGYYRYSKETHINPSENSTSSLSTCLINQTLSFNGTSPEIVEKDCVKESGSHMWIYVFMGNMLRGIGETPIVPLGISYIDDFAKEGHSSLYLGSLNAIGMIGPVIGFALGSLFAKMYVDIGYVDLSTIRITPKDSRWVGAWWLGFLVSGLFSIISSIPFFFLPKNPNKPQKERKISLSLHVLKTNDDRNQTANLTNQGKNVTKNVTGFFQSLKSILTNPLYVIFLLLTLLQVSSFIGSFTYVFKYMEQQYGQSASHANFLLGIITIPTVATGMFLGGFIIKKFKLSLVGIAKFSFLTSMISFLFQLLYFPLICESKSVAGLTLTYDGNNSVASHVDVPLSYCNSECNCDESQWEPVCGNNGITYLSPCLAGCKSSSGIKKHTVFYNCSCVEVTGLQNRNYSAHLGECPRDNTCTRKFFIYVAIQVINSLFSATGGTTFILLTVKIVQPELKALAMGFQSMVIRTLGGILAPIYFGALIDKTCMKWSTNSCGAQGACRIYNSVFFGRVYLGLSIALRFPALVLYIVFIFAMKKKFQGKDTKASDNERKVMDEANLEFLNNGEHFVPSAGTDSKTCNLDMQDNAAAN
Put plainly: Inhibition of S‐3100‐CA uptake by OATP inhibitors, human OATP1B3. It is filed as in vitro ADME. The note with it: inhibitor at 100 μM. On the procedure:
293FT cells were purchased from Thermo Fisher Scientific, Inc.. The cells were grown in Dulbecco's modified Eagle medium (supplemented with 4.5 g/L glucose and 2 mM L‐glutamine) at 37°C, 5% CO2, and 95% humidity. The cells were passaged 3 times per week by harvesting cells using trypsin and plating at a density of 1.0 × 10^4 cells/cm^2 in a 10 cm cell culture plate for maintenance culture. The 293FT cells were detached using trypsin and re‐seeded at a density of 2.5 × 10^4 cells/cm^2 in BioCoat™ Collagen I 6‐well plates (Corning Inc.) for transfection and then treated with 1.2 μg of plasmid vector and 3.2 μl of Lipofectamine™ 2000 Transfection Reagent (Thermo Fisher Scientific, Inc.) according to the manufacturer's instructions. After a 3‐h treatment, the transfection medium was replaced with a fresh cell culture medium and incubated at 37°C with 95% humidity and 5% CO2 until ready for the assay.
Transport experiments were conducted approximately 24 h post‐transfection. […] From the lysate, 1.0 ml was transferred to a vial containing 10 ml of Emulsifier Scintillator Plus to measure the radioactivity in the LSC. The protein concentration of the cell lysate was also measured using a Pierce™ BCA Protein Assay Kit (Thermo Fisher Scientific, Inc.), which was used to normalize, according to the cell number, the radioactivity in the cell lysate extract. […]

Data set [1] can be described thus: Metabolite analysis in plasma, liver, and kidney (TLC). It is filed as in vivo, Crl:CD1(ICR) mice. The note with it: for concentration at 2 h / Kp at 2 h: Crl:CD1(ICR), mouse, oral; for Kp at 2 h: liver and plasma, read-out: Liver/plasma ratio of S‐3100‐CA; for Kp at 2 h / S‐3100‐CA concentration in liver: 2 h. The source says:
Precoated silica gel 60 F254 chromatoplate (20 × 20 cm, 0.25‐ or 0.5‐mm layer thickness, Merck KGaA) was used for two‐dimensional thin layer chromatography (2D‐TLC) analysis. The solvent systems were ethyl formate/formic acid (95/5, v/v) for the first dimension, and ethyl acetate/acetic acid (95/5, v/v) for the second dimension. The radioactivity on the TLC plates was detected by autoradiography using an imaging plate processed with a fluoro‐image analyzer (FLA‐9500, GE Healthcare). The identity of the metabolites was confirmed by co‐chromatography in comparison with authentic metabolite standards.
Three mice per sex at 8 weeks old were given a single oral dose of [^14C]epyrifenacil at 1 mg/kg with or without co‐administration of OATP inhibitors. […] At 2 h after administration of [^14C]epyifenacil, the animals were euthanized by whole blood collection from the abdominal aorta under anesthesia with isoflurane. The sampling time point was selected as the time around T max based on the result of the blood ^14C‐concentration study. Then, the liver and kidney were dissected out, and the amount of ^14C was measured. Aliquots of heparinized blood samples were separated into blood cells and plasma by centrifugation at 2000g for 10 min at 4°C. The total weight of the liver and kidney was determined for each animal. Two aliquots of plasma and tissue samples (approximately 0.05–0.1 g) were weighed in a glass vial, and the radioactivity was measured.
Approximately 0.3 g of liver, kidney, and plasma samples were pooled, respectively, for each dose and gender to obtain samples for analysis. Pooled liver, kidney, and plasma (ca. 1 g each) samples were homogenized with an approximately 3‐fold volume (v/w) of methanol using the mixer mill MM400 (5 min, 25 cycles/second, Retsch GmbH) and centrifuged (10 000g, 5 min, 4°C) to separate the supernatants from the residues. The extraction was repeated one additional time. The supernatants obtained were pooled and labeled liver, kidney, and plasma extracts. These samples were concentrated and then subjected to TLC analysis. For calculation of extraction efficacy, the post‐extraction solids (PESs) from the tissues and plasma extracts were sampled in low potassium glass vials. PESs were solubilized with 3 M potassium hydroxide solution (approximately 1 ml), then bleached with 30% hydrogen peroxide solution, and finally mixed with 10 ml of Hionic‐Fluor to measure the radioactivity.

For `CO[C@H]1/C=C/O[C@@]2(C)Oc3c(C)c(O)c4c(O)c(c(/C=N/N5CCN(C)CC5)c(O)c4c3C2=O)NC(=O)/C(C)=C\C=C\[C@H](C)[C@H](O)[C@@H](C)[C@@H](O)[C@@H](C)[C@H](OC(C)=O)[C@@H]1C` [RIF, Rifampicin], the “Uptake of S‐3100‐CA, % of that by vehicle‐treated cells” value on human OATP1B3 is listed as “less than 40%”.

Regarding `Cn1c(C(F)(F)F)cc(=O)n(-c2cc(Oc3cccnc3OCC(=O)O)c(Cl)cc2F)c1=O` [S‐3100‐CA], the concentration at 2 h worked out at 50 ng/g in data set [1] (kidney, with rifampicin (OATP inhibitor) 200 mg/kg p.o., Female, 2 h after [^14C]Epyrifenacil 1 mg/kg p.o. + Rifampicin 200 mg/kg p.o., read-out: Metabolite concentration, Kidney); 73 ng/g in data set [1] (kidney, with rifampicin (OATP inhibitor) 200 mg/kg p.o., Male, 2 h after [^14C]Epyrifenacil 1 mg/kg p.o. + Rifampicin 200 mg/kg p.o., read-out: Metabolite concentration, Kidney); 96 ng/g in data set [1] (kidney, Female, 2 h after [^14C]Epyrifenacil 1 mg/kg p.o., read-out: Metabolite concentration, Kidney); 55 ng/g in data set [1] (kidney, Male, 2 h after [^14C]Epyrifenacil 1 mg/kg p.o., read-out: Metabolite concentration, Kidney); 660 ng/g in data set [1] (liver, with rifampicin (OATP inhibitor) 200 mg/kg p.o., Female, 2 h after [^14C]Epyrifenacil 1 mg/kg p.o. + Rifampicin 200 mg/kg p.o., read-out: Metabolite concentration, Liver); 1370 ng/g in data set [1] (liver, with rifampicin (OATP inhibitor) 200 mg/kg p.o., Male, 2 h after [^14C]Epyrifenacil 1 mg/kg p.o. + Rifampicin 200 mg/kg p.o., read-out: Metabolite concentration, Liver). The concentration at 2 h was 3520 ng/g in data set [1] (liver, Female, 2 h after [^14C]Epyrifenacil 1 mg/kg p.o., read-out: Metabolite concentration, Liver); 4740 ng/g in data set [1] (liver, Male, 2 h after [^14C]Epyrifenacil 1 mg/kg p.o., read-out: Metabolite concentration, Liver); 143 ng/g in data set [1] (plasma, with rifampicin (OATP inhibitor) 200 mg/kg p.o., Female, 2 h after [^14C]Epyrifenacil 1 mg/kg p.o. + Rifampicin 200 mg/kg p.o., read-out: Metabolite concentration, Plasma); 76 ng/g in data set [1] (plasma, with rifampicin (OATP inhibitor) 200 mg/kg p.o., Male, 2 h after [^14C]Epyrifenacil 1 mg/kg p.o. + Rifampicin 200 mg/kg p.o., read-out: Metabolite concentration, Plasma); 68 ng/g in data set [1] (plasma, Female, 2 h after [^14C]Epyrifenacil 1 mg/kg p.o., read-out: Metabolite concentration, Plasma); 54 ng/g in data set [1] (plasma, Male, 2 h after [^14C]Epyrifenacil 1 mg/kg p.o., pooled samples, read-out: Metabolite concentration, Plasma). Further, the “Share of ^14C in liver” value in data set [1] (all dose groups) is recorded as “over 70%”. Besides, the Kp at 2 h in data set [1] (female, 1 mg/kg, females, epyrifenacil 1 mg/kg p.o. without inhibitors) is 52; in data set [1] (female, females, DGX co‐administrated (oral or intraperitoneal)), 50 to 56; in data set [1] (female, females, RIF co‐administrated) it was 5; in data set [1] (male, 1 mg/kg, males, epyrifenacil 1 mg/kg p.o. without inhibitors) it was 88; in data set [1] (male, males, DGX co‐administrated (oral or intraperitoneal)), 89 to 139; in data set [1] (male, males, RIF co‐administrated), 18. Also, the “S‐3100‐CA concentration in liver” value in data set [1] (females, RIF co‐administrated) is given as 0.660 ppm; in data set [1] (males, RIF co‐administrated), 1.371 ppm.
